Reference: patent US10568950B1, “Peptides, combination of peptides and scaffolds for use in immunotherapeutic treatment of various cancers” (Immatics Biotechnologies GmbH, priority 2015, dated 2020)

Tests used:
[1] = tested on: CD8+ T cells of healthy HLA-A*02+ donors; experiment: In vitro immunogenicity: priming of CD8+ T cells with aAPCs loaded with HLA-A*02/peptide complexes and anti-CD28, multimer staining; format: cell-based, human; settings: HLA-A*02 peptides of Table 12B
Description: CD8+ T cells were primed using artificial APCs coated with anti-CD28 mAb and HLA-A*02 in complex with SEQ ID NO: 2 peptide (FIG. 4A, left panel), SEQ ID NO: 9 peptide (FIG. 4B, left panel) and SEQ ID NO: 331 peptide (FIG. 4C, left panel), respectively. After three cycles of stimulation, the detection of peptide-reactive cells was performed by 2D multimer staining with A*02/SEQ ID NO: 2 (A), A*02/SEQ ID NO: 9 (B) or A*02/SEQ ID NO: 331 (C). Right panels (FIGS. 4A, 4B and 4C) show control staining of cells stimulated with irrelevant A*02/peptide complexes. Viable singlet cells were gated for CD8+ lymphocytes. Boolean gates helped excluding false-positive events detected with multimers specific for different peptides. Frequencies of specific multimer+ cells among CD8+ lymphocytes are indicated.
(§1) In order to obtain information regarding the immunogenicity of the TUMAPs of the present invention, the inventors performed investigations using an in vitro T-cell priming assay based on repeated stimulations of CD8+ T cells with artificial antigen presenting cells (aAPCs) loaded with peptide/MHC complexes and anti-CD28 antibody.
In order to perform in vitro stimulations by artificial antigen presenting cells loaded with peptide-MHC complex (pMHC) and anti-CD28 antibody, the inventors first isolated CD8+ T cells from fresh HLA-A*02 leukapheresis products via positive selection using CD8 microbeads (Miltenyi Biotec, Bergisch-Gladbach, Germany) of healthy donors obtained from the University clinics Mannheim, Germany, after informed consent.
(§2) PBMCs and isolated CD8+ lymphocytes were incubated in T-cell medium (TCM) until use consisting of RPMI-Glutamax (Invitrogen, Karlsruhe, Germany) supplemented with 10% heat inactivated human AB serum (PAN-Biotech, Aidenbach, Germany), 100 U/ml Penicillin/100 μg/ml Streptomycin (Cambrex, Cologne, Germany), 1 mM sodium pyruvate (CC Pro, Oberdorla, Germany), 20 μg/ml Gentamycin (Cambrex). 2.5 ng/ml IL-7 (PromoCell, Heidelberg, Germany) and 10 U/ml IL-2 (Novartis Pharma, Nurnberg, Germany) were also added to the TCM at this step.
(§3) Generation of pMHC/anti-CD28 coated beads, T-cell stimulations and readout was performed in a highly defined in vitro system using four different pMHC molecules per stimulation condition and 8 different pMHC molecules per readout condition.
(§4) The purified co-stimulatory mouse IgG2a anti human CD28 Ab 9.3 (Jung et al., 1987) was chemically biotinylated using Sulfo-N-hydroxysuccinimidobiotin as recommended by the manufacturer (Perbio, Bonn, Germany). Beads used were 5.6 μm diameter streptavidin coated polystyrene particles (Bangs Laboratories, Illinois, USA).
pMHC used for positive and negative control stimulations were A*0201/MLA-001 (peptide […] (SEQ ID NO. 418) from modified Melan-A/MART-1) and A*0201/DDX5-001 ([…] from DDX5, SEQ ID NO. 419), respectively.
800.000 beads/200 μl were coated in 96-well plates in the presence of 4×12.5 ng different biotin-pMHC, washed and 600 ng biotin anti-CD28 were added subsequently in a volume of 200 μl. Stimulations were initiated in 96-well plates by co-incubating 1×10^6 CD8+ T cells with 2×10^5 washed coated beads in 200 μl TCM supplemented with 5 ng/ml IL-12 (PromoCell) for 3 days at 37° C. Half of the medium was then exchanged by fresh TCM supplemented with 80 U/ml IL-2 and incubating was continued for 4 days at 37° C. This stimulation cycle was performed for a total of three times. For the pMHC multimer readout using 8 different pMHC molecules per condition, a two-dimensional combinatorial coding approach was used as previously described (Andersen et al., 2012) with minor modifications encompassing coupling to 5 different fluorochromes. Finally, multimeric analyses were performed by staining the cells with Live/dead near IR dye (Invitrogen, Karlsruhe, Germany), CD8-FITC antibody clone SKI (BD, Heidelberg, Germany) and fluorescent pMHC multimers. For analysis, a BD LSRII SORP cytometer equipped with appropriate lasers and filters was used. […]

HLA-A*02 = HLA-A*02 (Homo sapiens, UniProt P04439, D140Y/D185E/D98H/E176V/E277Q/G131W/G231S/I119V/I121R/I166T/I218V/N151K/N90K/P208A/P217A/Q86G/Q94H/R138H/R169H); experiment: MHC binding assay: UV-ligand exchange, beta2m ELISA (peptide exchange yield); settings: binding to HLA-A*02, β2m ELISA
Excerpt: Candidate peptides for T cell based therapies according to the present invention were further tested for their MHC binding capacity (affinity). The individual peptide-MHC complexes were produced by UV-ligand exchange, where a UV-sensitive peptide is cleaved upon UV-irradiation, and exchanged with the peptide of interest as analyzed. Only peptide candidates that can effectively bind and stabilize the peptide-receptive MHC molecules prevent dissociation of the MHC complexes. To determine the yield of the exchange reaction, an ELISA was performed based on the detection of the light chain (β2m) of stabilized MHC complexes. The assay was performed as generally described in Rodenko et al. (Rodenko et al., 2006).
96 well MAXISorp plates (NUNC) were coated over night with 2 ug/ml streptavidin in PBS at room temperature, washed 4× and blocked for 1 h at 37° C. in 2% BSA containing blocking buffer. […] Peptide-MHC monomers of the UV-exchange reaction were diluted 100 fold in blocking buffer. Samples were incubated for 1 h at 37° C., washed four times, incubated with 2 ug/ml HRP conjugated anti-βm for 1 h at 37° C., washed again and detected with TMB solution that is stopped with […]. Absorption was measured at 450 nm. Candidate peptides that show a high exchange yield (preferably higher than 50%, most preferred higher than 75%) are generally preferred for a generation and production of antibodies or fragments thereof, and/or T cell receptors or fragments thereof, as they show sufficient avidity to the MHC molecules and prevent dissociation of the MHC complexes.

HLA-A*24 = experiment: as above; parameters: species or system human; settings: binding to HLA-A*24, β2m ELISA
[2] = tested on: CD8+ T cells of healthy HLA-A*24+ donors; experiment: In vitro immunogenicity: priming of CD8+ T cells with aAPCs loaded with HLA-A*24/peptide complexes and anti-CD28, multimer staining; format: cell-based, human; settings: in vitro immunogenicity, HLA-A*24 peptides of Table 12B
Description: CD8+ T cells were primed using artificial APCs coated with anti-CD28 mAb and HLA-A*24 in complex with SEQ ID NO: 99 peptide (FIG. 5A, left panel), SEQ ID NO: 119 peptide (FIG. 5B, left panel), SEQ ID NO: 142 peptide (FIG. 5C, left panel) and SEQ ID NO: 174 peptide (FIG. 5D, left panel), respectively. After three cycles of stimulation, the detection of peptide-reactive cells was performed by 2D multimer staining with A*24/SEQ ID NO: 99 (A), A*24/SEQ ID NO: 119 (B), A*24/SEQ ID NO: 142 (C) or A*24/SEQ ID NO: 174 (D). Right panels (FIGS. 5A, 5B, 5C and 5D) show control staining of cells stimulated with irrelevant A*24/peptide complexes. Viable singlet cells were gated for CD8+ lymphocytes. Boolean gates helped excluding false-positive events detected with multimers specific for different peptides. Frequencies of specific multimer+ cells among CD8+ lymphocytes are indicated.
as §1, §2, §3, §4
800.000 beads/200 μl were coated in 96-well plates in the presence of 4×12.5 ng different biotin-pMHC, washed and 600 ng biotin anti-CD28 were added subsequently in a volume of 200 μl. Stimulations were initiated in 96-well plates by co-incubating […] CD8+ T cells with 2×10^5 washed coated beads in 200 μl TCM supplemented with 5 ng/ml IL-12 (PromoCell) for 3 days at 37° C. Half of the medium was then exchanged by fresh TCM supplemented with 80 U/ml IL-2 and incubating was continued for 4 days at 37° C. This stimulation cycle was performed for a total of three times. For the pMHC multimer readout using 8 different pMHC molecules per condition, a two-dimensional combinatorial coding approach was used as previously described (Andersen et al., 2012) with minor modifications encompassing coupling to 5 different fluorochromes. Finally, multimeric analyses were performed by staining the cells with Live/dead near IR dye (Invitrogen, Karlsruhe, Germany), CD8-FITC antibody clone SKI (BD, Heidelberg, Germany) and fluorescent pMHC multimers. For analysis, a BD LSRII SORP cytometer equipped with appropriate lasers and filters was used. Peptide specific cells were calculated as percentage of total CD8+ cells. Evaluation of multimeric analysis was done using the FlowJo software (Tree Star, Oreg., USA). In vitro priming of specific multimer+ CD8+ lymphocytes was detected by comparing to negative control stimulations.

Row | Substance | Peptide exchange (MHC class I binding score, peptide exchange yield) (HLA-A*02) | Peptide exchange (MHC class I binding score, peptide exchange yield) (HLA-A*24) | Wells positive [%] [1] | Wells positive [%] [2]
1 | 2 (ALYGKLLKL; listed as Homo sapiens) [compound 2] | +++ (50%-75% = +++) |  | ++++ (>= 70 % = ++++) | 
2 | 7 (AAAAKVPEV; listed as Homo sapiens) [compound 7] | +++ (50%-75% = +++) |  | + (<20% = +) | 
3 | 8 (KLGPFLLNA; listed as Homo sapiens) [compound 8] | +++ (50%-75% = +++) |  | +++ (50%-69% = +++) | 
4 | 9 (FLGDYVENL; listed as Homo sapiens) [compound 9] | ++ (20%-49% = ++) |  | + (<20% = +) | 
5 | 17 (ILHEHHIFL; listed as Homo sapiens) [compound 17] | +++ (50%-75% = +++) |  | + (<20% = +) | 
6 | 43 (LLWAGPVTA; listed as Homo sapiens) [compound 43] | +++ (50%-75% = +++) |  | ++++ (>= 70 % = ++++) | 
7 | 170 (QYPFHVPLL; listed as Homo sapiens) [compound 170] |  | ++++ (>= 75% = ++++) |  | +++ (50%-69% = +++)
8 | 172 (VFIFKGNEF; listed as Homo sapiens) [compound 172] |  | ++++ (>= 75% = ++++) |  | + (<20% = +)
9 | 182 (AYAQLGYLLF; listed as Homo sapiens) [compound 182] |  | ++++ (>= 75% = ++++) |  | +++ (50%-69% = +++)
10 | 186 (VFTTSSNIF; listed as Homo sapiens) [compound 186] |  | ++++ (>= 75% = ++++) |  | + (<20% = +)
11 | 322 (ALVSGGVAQA; listed as Homo sapiens) [compound 322] | +++ (50%-75% = +++) |  | + (<20% = +) | 

Further lines, with some results ahead:

Row | Peptide exchange (MHC class I binding score, peptide exchange yield) (HLA-A*02) | Peptide exchange (MHC class I binding score, peptide exchange yield) (HLA-A*24) | Substance | Wells positive [%] [1] | Wells positive [%] [2]
12 | +++ (50%-75% = +++) |  | 331 (AIWKELISL; listed as Homo sapiens) [compound 331] | ++ (20%-49% = ++) | 
13 |  | ++++ (>= 75% = ++++) | 356 (NYMPGQLTI; listed as Homo sapiens) [compound 356] |  | + (<20% = +)
14 |  | ++++ (>= 75% = ++++) | 359 (NYGVLHVTF; listed as Homo sapiens) [compound 359] |  | + (<20% = +)
15 |  | ++++ (>= 75% = ++++) | 365 (VFIDHPVHL; listed as Homo sapiens) [compound 365] |  | + (<20% = +)
16 |  | ++++ (>= 75% = ++++) | 380 (VYTGIDHHW; listed as Homo sapiens) [compound 380] |  | + (<20% = +)
